Data published in ChEMBL document CHEMBL1153136, “Novel benzoylpiperidine-based stearoyl-CoA desaturase-1 inhibitors: Identification of 6-[4-(2-methylbenzoyl)piperidin-1-yl]pyridazine-3-carboxylic acid (2-hydroxy-2-pyridin-3-ylethyl)amide and its plasma triglyceride-lowering effects in Zucker fatty rats” (Bioorg Med Chem Lett, 2010).
Values after ≈ are worked out from the molar mass of the structure shown. Active and inactive are the calls of the source. The rule behind the calls is not given here.

Tests used:
[1] = target: T1, Acyl-CoA desaturase 1 (Mus musculus, UniProt P13516); assay: Inhibition of Scd1 in mouse liver microsomes assessed as conversion of [14C]stearate to [14C]oleate pretreated for 10 mins measured after 60 mins; parameters: species or system Microsome
T1 sequence (P13516 whole entry): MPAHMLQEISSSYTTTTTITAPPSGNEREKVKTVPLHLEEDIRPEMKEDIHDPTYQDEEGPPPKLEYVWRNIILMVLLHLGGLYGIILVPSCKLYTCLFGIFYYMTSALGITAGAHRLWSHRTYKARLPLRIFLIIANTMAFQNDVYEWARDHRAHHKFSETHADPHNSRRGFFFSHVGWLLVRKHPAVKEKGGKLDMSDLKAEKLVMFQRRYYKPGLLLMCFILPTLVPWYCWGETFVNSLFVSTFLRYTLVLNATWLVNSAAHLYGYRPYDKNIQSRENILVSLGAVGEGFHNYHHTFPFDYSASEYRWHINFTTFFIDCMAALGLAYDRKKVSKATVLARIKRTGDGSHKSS

[2] = target: T2, Stearoyl-CoA desaturase (Homo sapiens, UniProt O00767); assay: Inhibition of human Scd1 expressed in HEK293A cells assessed as conversion of [14C]stearate to [14C]oleate pretreated for 30 mins measured after 4 hrs; format: cell-based, HEK293-A
T2 sequence (O00767 whole entry): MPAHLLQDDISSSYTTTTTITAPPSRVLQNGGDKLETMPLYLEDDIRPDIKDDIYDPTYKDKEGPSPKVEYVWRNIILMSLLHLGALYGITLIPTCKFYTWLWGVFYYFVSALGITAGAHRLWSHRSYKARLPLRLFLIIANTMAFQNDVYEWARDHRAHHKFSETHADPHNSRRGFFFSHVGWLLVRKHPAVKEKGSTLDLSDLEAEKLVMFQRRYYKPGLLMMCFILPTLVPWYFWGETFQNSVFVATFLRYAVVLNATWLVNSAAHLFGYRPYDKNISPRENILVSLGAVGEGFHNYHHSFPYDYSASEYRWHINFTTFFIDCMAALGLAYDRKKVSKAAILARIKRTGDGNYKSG

[3] = target: T2, Stearoyl-CoA desaturase; assay: Inhibition of Scd1 in human HEK293A cell microsomes assessed as conversion of [14C]stearate to [14C]oleate pretreated for 10 mins measured after 60 mins; parameters: species or system HEK293-A, Microsome
[4] = tested on: Mus musculus; assay: Inhibition of Scd1 in po dosed db/db mouse assessed as [14C]oleate to [14C]stearate ratio in liver administered 2 hrs before [14C]stearate challenge measured after 1 hr; format: functional; details: read-out: ID50 (the source's name)
[5] = Half life in C57BL/6 mouse at 20 mg/kg, po; format: ADME, organism-based; parameters: dose 20 mg/kg, route oral; details: in vivo
[6] = AUC (0 to 8 hrs) in C57BL/6 mouse at 20 mg/kg, po; format: ADME, organism-based; parameters: time < 8 hr, dose 20 mg/kg, route oral; details: plasma
[7] = Oral bioavailability in C57BL/6 mouse at 20 mg/kg; format: ADME, organism-based; details: in vivo
[8] = target: T3, Stearoyl-CoA desaturase (Homo sapiens) (UniProt O00767); assay: Inhibition of human Scd1 assessed as conversion of [14C]stearate to [14C]oleate at 10 uM pretreated for 30 mins measured after 4 hrs
T3 sequence (whole entry): T2 sequence (O00767 whole entry)

[9] = Solubility in aqueous acidic solution at pH 1.2; format: physicochemical
[10] = Solubility in neutral solution at pH 6.8; format: physicochemical
[11] = Metabolic stability in mouse liver S9 fraction assessed as compound remaining after 30 mins; format: ADME, subcellular; details: read-out: Stability
[12] = Half life in C57BL/6 mouse at 5 mg/kg, iv; format: ADME, organism-based; parameters: dose 5 mg/kg, route intravenous; details: in vivo
[13] = Clearance in C57BL/6 mouse at 5 mg/kg, iv; format: ADME, organism-based; parameters: dose 5 mg/kg, route intravenous; details: in vivo
[14] = Volume of distribution in C57BL/6 mouse at 5 mg/kg, iv; format: ADME, organism-based; parameters: dose 5 mg/kg, route intravenous; details: in vivo
[15] = Cmax in C57BL/6 mouse at 20 mg/kg, po; format: ADME, organism-based; parameters: dose 20 mg/kg, route oral; details: in vivo
[16] = tested on: Rattus norvegicus; assay: Reduction of plasma triglyceride level in Zucker fatty rat at 30 mg/kg, po qd for 7 days; format: functional; parameters: scale not given: the % may be the effect or the level left
[17] = tested on: Rattus norvegicus; assay: Reduction of plasma triglyceride level in po dosed Zucker fatty rat administered qd for 7 days; format: functional, organism-based
[18] = tested on: Rattus norvegicus; assay: Toxicity in Zucker fatty rat assessed as reduction of body weight at 30 mg/kg, po qd for 7 days; format: organism-based; parameters: dose 30 mg/kg, route oral; scale not given: the % may be the effect or the level left; details: in vivo, 168 h
[19] = tested on: Rattus norvegicus; assay: Reduction of plasma glucose level in Zucker fatty rat at 30 mg/kg, po qd for 7 days; format: functional, organism-based; parameters: dose 30 mg/kg
[20] = tested on: Rattus norvegicus; assay: Reduction of plasma insulin level in Zucker fatty rat at 30 mg/kg, po qd for 7 days; format: functional, organism-based; parameters: dose 30 mg/kg
[21] = tested on: Rattus norvegicus; assay: Toxicity in Zucker fatty rat assessed as induction of cutaneous abnormalities at 30 mg/kg, po qd for 7 days; format: organism-based; parameters: dose 30 mg/kg, route oral; details: in vivo, 168 h
[22] = tested on: Rattus norvegicus; assay: Toxicity in Zucker fatty rat assessed as induction of narrow eye fissure at 30 mg/kg, po qd for 7 days; format: organism-based; parameters: dose 30 mg/kg, route oral; details: in vivo, 168 h

Compound	IC50 [1]	IC50 [2]	IC50 [3]	inhibition [8]	ED50 [4]	also measured
Cc1ccccc1C(=O)C1CCN(c2ccc(C(=O)NCC(O)c3ccccn3)nn2)CC1 (stereo unspecified)	95 nM	390 nM	180 nM	–	–	–
Cc1ccccc1C(=O)C1CCN(c2ccc(C(=O)NCC(O)c3ccccc3F)nn2)CC1 (stereo unspecified)	9 nM	60 nM	22 nM	–	17 mg/kg	–
Cc1ccccc1C(=O)C1CCN(c2ccc(C(=O)NCC(O)c3ccccc3)nn2)CC1 (stereo unspecified)	–	–	–	< 5%	12 mg/kg	half-life [5]: 48 min; AUC(0-t) at 8 h [6]: 500 ng·h/mL; bioavailability [7]: 6%; solubility [9]: 88 µM (≈ 39.1 µg/mL); solubility [10]: 3 µM (≈ 1.33 µg/mL); remaining at 0.5 h [11]: 58%; half-life [12]: 36 min; clearance [13]: 42 mL/min/kg; Vd [14]: 0.9 L/kg; Cmax [15]: 300 ng/mL
O=C(NCCc1ccccc1)c1ccc(N2CCN(C(=O)c3ccccc3C(F)(F)F)CC2)cc1	150 nM	–	820 nM	–	–	–
Cc1ccccc1C(=O)C1CCN(c2ccc(C(=O)NCC(O)c3cccnc3)nn2)CC1 (stereo unspecified)	37 nM	43 nM	28 nM	–	3 mg/kg	half-life [5]: 54 min; AUC(0-t) at 8 h [6]: 7800 ng·h/mL; bioavailability [7]: 68%; Activity [16]: 56%; Activity [17]: Dose-dependent effect; Activity [18]: 15%; Activity [19]: inactive; Activity [20]: inactive; Activity [21]: Non-toxic; Activity [22]: Non-toxic; solubility [9]: > 100 µM; solubility [10]: 29 µM (≈ 12.9 µg/mL); remaining at 0.5 h [11]: 1.1%; half-life [12]: 78 min; clearance [13]: 29 mL/min/kg; Vd [14]: 2.4 L/kg; Cmax [15]: 6300 ng/mL
O=C(NCC(O)c1ccccc1)c1ccc(N2CCC(C(=O)c3ccccc3)CC2)nn1 (stereo unspecified)	153 nM	108 nM	292 nM	< 5%	–	–
Cc1ccccc1C(=O)C1CCN(c2ccc(C(=O)NCC(O)c3ccncc3)nn2)CC1 (stereo unspecified)	34 nM	144 nM	187 nM	–	–	–
O=C(NCCc1ccccc1)c1ccc(N2CCN(C(=O)c3ccccc3C(F)(F)F)CC2)cn1	370 nM	–	250 nM	–	–	–
O=C(NCC(O)c1ccccc1)c1ccc(N2CCC(C(=O)c3ccc(F)cc3)CC2)nn1 (stereo unspecified)	74 nM	80 nM	118 nM	12%	–	–
O=C(NCCc1ccccc1)c1ccc(N2CCN(C(=O)c3ccccc3C(F)(F)F)CC2)nc1	194 nM	–	99 nM	–	–	–
COc1ccccc1C(=O)C1CCN(c2ccc(C(=O)NCC(O)c3ccccc3)nn2)CC1 (stereo unspecified)	52 nM	1050 nM	311 nM	< 5%	–	–

Continued by falling IC50 [1], values first:

IC50 [1]	IC50 [2]	IC50 [3]	inhibition [8]	Compound	ED50 [4]	also measured
7 nM	25 nM	44 nM	–	Cc1ccccc1C(=O)C1CCN(c2ccc(C(=O)NCC(O)c3cccs3)nn2)CC1 (stereo unspecified)	14 mg/kg	–
7 nM	22 nM	5 nM	–	Cc1ccccc1C(=O)C1CCN(c2ccc(C(=O)NCC(O)c3ccc(F)cc3)nn2)CC1 (stereo unspecified)	14 mg/kg	–
5 nM	103 nM	10 nM	< 5%	O=C(NCC(O)c1ccccc1)c1ccc(N2CCC(C(=O)c3ccccc3OC(F)(F)F)CC2)nn1 (stereo unspecified)	–	solubility [9]: 83 µM (≈ 42.7 µg/mL); solubility [10]: < 0.5 µM; remaining at 0.5 h [11]: 22%
5 nM	11 nM	6 nM	–	Cc1ccccc1C(=O)C1CCN(c2ccc(C(=O)NCC(O)c3cccc(F)c3)nn2)CC1 (stereo unspecified)	14 mg/kg	–
3 nM	21 nM	7 nM	–	Cc1ccccc1C(=O)C1CCN(c2ccc(C(=O)NCC(O)c3ccsc3)nn2)CC1 (stereo unspecified)	16 mg/kg	–
2 nM	14 nM	7 nM	9%	O=C(NCC(O)c1ccccc1)c1ccc(N2CCC(C(=O)c3ccccc3C(F)(F)F)CC2)nn1 (stereo unspecified)	–	solubility [9]: 84 µM (≈ 41.9 µg/mL); solubility [10]: < 0.5 µM; remaining at 0.5 h [11]: 47%
